14 molecules from US4806538A, “Piperazine compound as PAF-antagonist” (Fujisawa Pharmaceutical Co., Ltd., priority 1984, dated 1989) can be followed below.

The test system of assay [1] is Platelet aggregation induced with PAF. Nature of the assay: Test 1: inhibition of PAF-induced platelet aggregation in platelet rich plasma. Type of assay: cell-based, Japanese white rabbit. The conditions noted are these: Oryctolagus cuniculus, rabbit PRP, 5×10^5 cells/mm^3, final concentration of PAF usually 20 nM. On the procedure: (Inhibition of platelet aggregation)
Blood was collected through the polyethylene catheter introduced into the carotid artery of male Japanese white rabbit (2.5 to 3 kg body weight). The blood was anticoagulated with 1 volume of 3.8% sodium citrate to 9 volume of blood. Platelet rich plasma (PRP) was prepared by centrifugation of the blood at 150 g for 10 minutes at room temperature. The PRP was diluted with platelet poor plasma obtained by further centrifugation of the blood at 1,000 g for 20 minutes. The platelet number was 5×10^5 cells/mm^3. Platelet aggregation induced with PAF was measured by the nephelometric technique of Born and Cross [cf. Journal of Physiology 168, 178-188 (1963)] using HKK Hema tracer (trade name, made by Niko Bioscience Inc.).
Activities of inhibitors were expressed as IC50 value, i.e. concentrations required to inhibit the platelet aggregation response by 50%. The final concentration of PAF was usually 20 nM.

Assay [2] deals with synthetic PAF induced hypotension. Briefly: Test 2: inhibition of hypotensive effect induced by intravenously injected PAF in rats. It counts as in vivo, Sprague-Dowley rats. The conditions noted are these: 3 minutes before PAF (1 μg/kg i.v.), anesthetized rats. On the procedure: (Inhibition of hypotensive effect induced by intraveneously injected PAF in rats)
Seven-week old Sprague-Dowley rats were anesthetized with urethane (1 g/kg, i. p.). Catheters were introduced into the femoral artery and vein for the measurement of arterial pressure and the administration of the test compound, respectively. Blood pressure was recorded from femoral artery using a transducer coupled to the Biophysiograph 180 System (San-Ei Instrument Co., Ltd.). Inhibitory activity of the test compound was shown in the following Table as the inhibition percentage of the synthetic PAF induced hypotension. PAF was administered intravenously at a dose of 1 μg/kg. The test compound was administered intravenously 3 minutes before PAF injection.

The test system of assay [3] is vascular permeability increase induced by intradermally injected PAF. Briefly: Test 3: inhibition of vascular permeability increase induced by intradermally injected PAF in mice (test compound i.p.). Type of assay: in vivo, ddY mice. The following applies: 10 mg/kg i.p., 15 minutes before Evans blue; PAF 50 ng intradermally; 30 minutes after PAF. On the procedure: (§1) (Inhibition of vascular permeability increase induced by intradermally injected PAF in mice)
Six-week old male ddY mice were used. The test compound was administered intraperitoneally 15 minutes before the Evans blue injection (0.125% solution in saline, 0.2 ml/mouse, i.v.).
PAF (50 ng, 50 μl per size) was injected intradermally to the depilated back of the mice 5 minutes after the Evans blue injection.
(§2) The inhibitory activity of the test compound was monitored 30 minutes after the PAF injection by assessment of blueing reaction with Evans blue dye in mice skin.

Assay [4] has the same test system. Briefly: Test 4: inhibition of vascular permeability increase induced by intradermally injected PAF in mice (test compound orally). It counts as in vivo, ddY mice. The conditions noted are these: 100 mg/kg orally, 30 minutes before Evans blue; PAF 50 ng intradermally; 30 minutes after PAF. On the procedure: as §1
Five-week old male ddY mice were used. The test compound suspended in 0.5 methylcellulose suspension was administered orally 30 minutes before the Evans blue injection (0.125% solution in saline, 10 ml/kg, i.v.).
PAF (50 ng, 50 μl per site) was injected intradermally to the depilated back of the mice 5 minutes after the Evans blue injection.
as §2

Molecules are shown by their SMILES. ≈ marks a conversion by molar mass, not a printed value.

In assay [1], `CSCC[C@H]1NC(=O)[C@@H](Cc2c3ccccc3cc3ccccc23)NC1=O` [Test compound 11] yielded a half-inhibitory concentration (IC50) of 0.58 µg/mL (≈ 1.53 µM). Still for that read-out and setting: as for `CSCC[C@H]1NC(=O)[C@@H](Cc2c(-c3ccccc3)n(C)c3ccccc23)NC1=O` [Test compound 13], the figure is 0.72 µg/mL (≈ 1.77 µM). Still for that read-out and setting: as for `CSCCCC1NC(=O)[C@@H](Cc2cn(C)c3ccccc23)NC1=O` (single isomer, unassigned) [Test compound 5], the figure is 0.55 µg/mL (≈ 1.59 µM); as for `Cn1cc(C[C@H]2NC(=O)[C@@H](Cc3cn(C)c4ccccc34)NC2=O)c2ccccc21` [Test compound 7], 1.2 µg/mL (≈ 3 µM). On the same count and under the same terms, as for `CSCC[C@H]1NC(=O)[C@@H](Cc2cn(C)c3ccccc23)NC1=O` [Example 1, (3R,6R)-3-(1-methylindol-3-ylmethyl)-6-(2-methylthioethyl)piperazine-2,5-dione], the figure is 0.71 µg/mL (≈ 2.14 µM); as for `CSCC[C@@H]1C(=O)N(C)[C@H]([C@H](C)c2cccc3ccccc23)C(=O)N1C` [Test compound 16], 0.59 µg/mL (≈ 1.59 µM). Regarding `CSCC[C@H]1NC(=O)[C@@H](Cc2cccc3ccccc23)NC1=O` [Test compound 10], in assay [1], the midpoint of inhibition, the IC50, lay at 0.48 µg/mL (≈ 1.46 µM). The same measure, in the same setting: as for `CCC[C@H]1NC(=O)[C@@H](Cc2cn(C)c3ccccc23)NC1=O` [Test compound 14], the figure is 0.93 µg/mL (≈ 3.11 µM); as for `CSCC[C@@H]1C(=O)N(C)[C@H](Cc2cn(C)c3ccccc23)C(=O)N1C` [Example 4, (3R,6R)-1,4-dimethyl-3-(1-methylindol-3-ylmethyl)-6-(2-methylthioethyl)piperazine-2,5-dione], 0.84 µg/mL (≈ 2.34 µM). Still for that read-out and setting: the result for `CCCC[C@H]1NC(=O)[C@@H](Cc2cn(C)c3ccccc23)NC1=O` [Test compound 8] reads 0.58 µg/mL (≈ 1.85 µM).

As for `CSCC[C@H]1NC(=O)[C@@H]([C@@H](C)c2cccc3ccccc23)NC1=O` [Test compound 12], it took 0.65 µg/mL (≈ 1.9 µM) to reach half-maximal inhibition in assay [1] (IC50). Regarding `CC(C)C[C@H]1NC(=O)[C@@H](Cc2cn(C)c3ccccc23)NC1=O` [Test compound 2], in assay [2] (10 mg/kg i.v.), the “Inhibition maximum (%) of hypotensive effect” value came out at 75%. Also, the “Inhibition of vascular permeability increase (%)” value in assay [3] is 30%. In assay [1], this molecule showed an IC50 of 1.04 µg/mL (≈ 3.32 µM). For the molecule `CSCC[C@H]1NC(=O)[C@@H]([C@H](C)c2cccc3ccccc23)NC1=O` [Test compound 9], the “Inhibition maximum (%) of hypotensive effect” value in assay [2] (3 mg/kg i.v.) is recorded as 51%. In assay [3], the “Inhibition of vascular permeability increase (%)” value amounted to 40%. The half-maximal inhibitory concentration (IC50) in assay [1] turned out to be 0.061 µg/mL (≈ 0.178 µM). Consider `C[C@H](c1cn(C)c2ccccc12)[C@H]1NC(=O)[C@@H](Cc2ccccn2)NC1=O` [Example 18, (3R,6R)-3-[(R)-1-(1-methylindol-3-yl)ethyl]-6-(2-pyridylmethyl)piperazine-2,5-dione], for which, in assay [4], the “Inhibition of vascular permeability increase (%)” value was determined as 56.7%. The molecule further gave an IC50 in assay [1] of 0.16 µg/mL (≈ 0.441 µM).

By IC50 is commonly meant the midpoint of a concentration-inhibition curve.
